Reference: patent EP2975033A1, “Improved cysteine-protease inhibitors” (Universitat Jaume I, priority 2014, dated 2016)
Converted amounts (≈) assume the structure as drawn. Like-named read-outs stand apart in the source and are kept apart here.

Experiments:
Falcipain 2 = biological target: T1, Falcipain 2 (Plasmodium falciparum, UniProt Q8I6U4); experiment: Protease assay, fluorogenic substrate Z-Phe-Arg-AMC: Falcipain 2; type: biochemical; details: FP2=Falcipain2
T1 construct: made in house
Description: (§1) 2.1.1. Protease Assays as shown in tables 1 and 2: Cathepsin L (human), Cathepsin B (human), Rhodesain (Trypanosoma brucei rhodesiense), Falcipain 2 (Plasmodium falciparum)
(§2) Enzyme assays used to identify inhibitors of the target cysteine proteases. The effect is detected measuring fluorescence increase due to hydrolysis of fluorogenic substrates by the target enzymes in absence and presence of potential inhibitors.
(§3) • a. Proteins (enzymes): • Cathepsin L (human liver) Calbiochem • Cathepsin B (human liver) Calbiochem • Rhodesain: recombinantly expressed according to ref.: Caffrey, C. R.; Hansell, E.; Lucas, K. D.; Brinen, L. S.; Hernandez, A. A.; Cheng, J.; Gwaltney, S. L., II; Roush, W. R.; Stierhof, Y. D.; Bogyo, M.; Steverding, D.; McKerrow, J. H. Active site mapping, biochemical properties and subcellular localization of rhodesain, the major cysteine protease of Trypanosoma • Falcipain 2: recombinantly expressed according to ref.: Pandey, K. C.; Wang, S. X.; Sijwali, P. S.; Lau, A. L.; McKerrow, J. H.; Rosenthal, P. J. The Plasmodium falciparum cysteine protease falcipain-2 captures its substrate, hemoglobin, via a unique motif. Proc. Natl. Acad. Sci. U.S.A. 2005, 102, 9138-9143. • b. Buffers: • Cathepsin B: 50 mM Tris-Puffer pH 6.5 mit 2 mM DTT, 5 mM EDTA, 200 mM NaCl, 0.005% Brij35 • Cathepsin L: 50 mM Tris-Puffer pH 6.5 mit 2 mM DTT, 5 mM EDTA, 200 mM NaCl, 0.005% Brij35 • Rhodesain: 50 mM Acetat-Puffer pH 5.5 mit 5 mM DTT, 5 mM EDTA, 200 mM NaCl, 0.005% Brij35 • Falcipain 2: 50 mM Acetat-Puffer pH 5.5 mit 5 mM DTT, 5 mM EDTA, 200 mM NaCl, 0.005% Brij35 • c. Substrates: • Cathepsin L: 6,25 µM Z-Phe-Arg-7-amino-4-methylcumarin, HCl von Bachem, Ex 380 nm, Em 460 nm • Cathepsin B: 100 µM Z-Phe-Arg-7-amino-4-methylcumarin, HCl von Bachem, Ex 380 nm, Em 460 nm • Rhodesain: 10µM Z-Phe-Arg-7-amino-4-methylcumarin, HCl von Bachem, Ex 380 nm, Em 460 nm • Falcipain 2: 25µM Z-Phe-Arg-7-amino-4-methylcumarin, HCl von Bachem, Ex 380 nm, Em 460 nm • Reference substance(s)/positive control(s): E64 • d. Solvent for inhibitors and substrates: DMSO 99,5% (GC) DC4540, Sigma • e. Measurement device: Tecan Fluorescence spectrophotometer infinite F200 Pro • f. Well plates: 96 well plates, Lia-Plate White, Greiner bio-one, flat bottom, high binding • g. Methodology: Substrates and inhibitor stock solutions are prepared in DMSO and diluted with the respective assay buffer (final DMSO concentration: […]). Enzyme stock solutions are diluted with assay buffer to yield a fluorescence increase of dF/min ≈ _20. Total volume: 200 µL (180 µL of assay buffer, 5 µL of enzyme solution, 10 µL of DMSO or inhibitor solution, 5 µL of substrate solution). Assays are started by the addition of substrate solution. Fluorescence increase is detected over a period of 10 - 30 min, depending on time dependent (30 min) or non-time dependent (10 min) inhibition. • h. Temp: 25 °C • i. DATA-[…] • Software: Grafit 5.013 • Ki values are calculated from IC50 values (obtained by the 4-parameter IC50 equation) using the Chen-Prusoff equation: Ki=IC50/(1 + [S]/Km)
(§4) In vitro inhibition of cysteine-proteases cruzain (CR) (Trypanosoma cruzi (T. cruzi)), rhodesain (RD) (T. brucei), cathepsin B (CB), falcipain (FP2) (Plasmodium falciparum) and cathepsin L (CL) was assessed by quantification of the resulting fluorescence emission of the proteolytic breakdown of synthetic compound Z-Phe-Arg-AMC (Bachem). The results of this determination are shown in tables 1 and 2 illustrated above.

Cathepsin B (human) = biological target: T2, Cathepsin B (human) (Homo sapiens, UniProt P07858); experiment: Protease assay, fluorogenic substrate Z-Phe-Arg-AMC: Cathepsin B; type: biochemical; details: CB=CathepsinB; for IC50: 25 °C, pH 6.5, 100 µM substrate, read-out: CBIC50micM
T2 construct: Cathepsin B (human liver) Calbiochem; purchased Calbiochem; host or cells: human liver (tissue-derived)
Description: as §1, §2, §3, §4

cruzain (CR) = cruzain (CR) (Trypanosoma cruzi, UniProt P25779); experiment: In vitro inhibition of cruzain, fluorescence of Z-Phe-Arg-AMC breakdown; type: biochemical
Description: as §2, §4

Cathepsin L (human) = biological target: T3, Cathepsin L (human) (Homo sapiens, UniProt P07711); experiment: Protease assay, fluorogenic substrate Z-Phe-Arg-AMC: Cathepsin L; type: biochemical; details: CL=CathepsinL; for IC50: read-out: CL(IC50), 25 °C, pH 6.5, 6,25 µM substrate
T3 construct: Cathepsin L (human liver) Calbiochem; purchased Calbiochem; host or cells: human liver (tissue-derived)
Description: as §1, §2, §3, §4

Rhodesain = biological target: T4, Rhodesain (Trypanosoma brucei rhodesiense, UniProt Q95PM0); experiment: Protease assay, fluorogenic substrate Z-Phe-Arg-AMC: Rhodesain; type: biochemical; details: for IC50: RD=Rhodesain, 25 °C, pH 5.5, 10µM substrate
T4 construct: made in house
Description: as §1, §2, §3, §4

[1] = tested on: T. cruzi Tulahuen strain C2C4; experiment: Activity against T. cruzi in L-6 cells (beta-galactosidase, CPRG); type: cell-based; details: Trypanosoma cruzi, TULAHUEN, L6
Description: (§5) For all the susceptibility assays with parasites and cells, each drug was tested in duplicate and each assay was repeated at least once. • a. Activity against Trypanosoma brucei rhodesiense STIB900. This stock was isolated in 1982 from a human patient in Tanzania and after several mouse passages cloned and adapted to axenic culture conditions (Baltz et al 1985) Minimum Essential Medium (50 µl) supplemented with 25 mM HEPES, 1g/l additional glucose, 1% MEM non-essential amino acids (100x), 0.2 mM 2-mercaptoethanol, 1 mM Na-pyruvate and 15% heat inactivated horse serum was added to each well of a 96-well microtiter plate. Serial drug dilutions of eleven 3-fold dilution steps covering a range from 100 to 0.002 µg/ml were prepared. Then 4x10^3 bloodstream forms of T. b. rhodesiense STIB 900 in 50 µl was added to each well and the plate incubated at 37 °C under a 5 % CO2 atmosphere for 70 h. 10 µl Alamar Blue (resazurin, 12.5 mg in 100 ml double-distilled water) was then added to each well and incubation continued for a further 2-4 h (Raz et al 1997). Then the plates were read with a Spectramax Gemini XS microplate fluorometer (Molecular Devices Cooperation, Sunnyvale, CA, USA) using an excitation wave length of 536 nm and an emission wave length of 588 nm. The IC50 values were calculated by linear regression (Huber 1993) from the sigmoidal dose inhibition curves using SoftmaxPro software (Molecular Devices Cooperation, Sunnyvale, CA, USA). Melarsoprol (Arsobal Sanofi-Aventis, received from WHO) is used as control. • b. Activity against T. cruzi. Rat skeletal myoblasts (L-6 cells) were seeded in 96-well microtitre plates at 2000 cells/well in 100 µL RPMI 1640 medium with 10% FBS and 2 mM I-glutamine. After 24 h the medium was removed and replaced by 100 µl per well containing 5000 trypomastigote forms of T. cruzi Tulahuen strain C2C4 containing the β-galactosidase (Lac Z) gene (Buckner et al. 1996). After 48 h the medium was removed from the wells and replaced by 100 µl fresh medium with or without a serial drug dilution of eleven 3-fold dilution steps covering a range from 100 to 0.002 µg/ml. After 96 h of incubation the plates were inspected under an inverted microscope to assure growth of the controls and sterility. Then the substrate CPRG/Nonidet (50 µl) was added to all wells. A color reaction developed within 2-6 h and could be read photometrically at 540 nm. Data were analyzed with the graphic programme Softmax Pro (Molecular Devices), which calculated IC50 values by linear regression (Huber 1993) from the sigmoidal dose inhibition curves. […] Activity against L. donovani axenic amastigotes. Amastigotes of L. donovani strain MHOM/ET/67/L82 were grown in axenic culture at 37 °C in SM medium (Cunnigham et al. 1977) at pH 5.4 supplemented with 10% heat-inactivated fetal bovine serum under an atmosphere of 5% CO2 in air. One hundred microlitres of culture medium with 10^5 amastigotes from axenic culture with or without a serial drug dilution were seeded in 96-well microtitre plates. Serial drug dilutions of eleven 3-fold dilution steps covering a range from 90 to 0.002 µg/ml were prepared. After 70 h of incubation the plates were inspected under an inverted microscope to assure growth of the controls and sterile conditions. 10 µl of Alamar Blue (12.5 mg resazurin dissolved in 100 ml distilled water) (Mikus and Steverdig. 2000) were then added to each well and the plates incubated for another 2 h. Then the plates were read with a Spectramax Gemini XS microplate fluorometer (Molecular Devices Cooperation, Sunnyvale, CA, USA) using an excitation wave length of 536 nm and an emission wave length of 588 nm. Data were analyzed using the software Softmax Pro (Molecular Devices Cooperation, Sunnyvale, CA, USA). Decrease of fluorescence (= inhibition) was expressed as percentage of the fluorescence of control cultures and plotted against the drug concentrations. From the sigmoidal inhibition curves the IC50 values were calculated. • d.

[2] = tested on: L. donovani strain MHOM/ET/67/L82; experiment: Activity against L. donovani axenic amastigotes (Alamar Blue); type: cell-based; details: Leishmania donovani
Description: as §5

[3] = tested on: P. falciparum NF54 strain; experiment: Activity against P. falciparum, 3H-hypoxanthine incorporation assay; type: cell-based; details: Plasmodium falciparum, NF54
[4] = tested on: Trypanosoma brucei rhodesiense STIB900; experiment: Activity against Trypanosoma brucei rhodesiense STIB900 (Alamar Blue); type: cell-based; details: Trypanosoma brucei
Description: as §5

cruzain (CR), sequence (P25779 123-467): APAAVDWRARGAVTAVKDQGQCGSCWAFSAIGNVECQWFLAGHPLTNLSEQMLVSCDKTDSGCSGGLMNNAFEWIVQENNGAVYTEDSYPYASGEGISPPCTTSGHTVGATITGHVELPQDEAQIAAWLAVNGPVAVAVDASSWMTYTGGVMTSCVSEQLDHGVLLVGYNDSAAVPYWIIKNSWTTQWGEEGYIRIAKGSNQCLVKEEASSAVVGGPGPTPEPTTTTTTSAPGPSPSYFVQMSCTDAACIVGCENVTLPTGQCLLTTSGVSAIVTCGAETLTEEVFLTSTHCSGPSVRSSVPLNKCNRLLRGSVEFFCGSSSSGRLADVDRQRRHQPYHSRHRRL
T4 sequence (Q95PM0 entry or part of it): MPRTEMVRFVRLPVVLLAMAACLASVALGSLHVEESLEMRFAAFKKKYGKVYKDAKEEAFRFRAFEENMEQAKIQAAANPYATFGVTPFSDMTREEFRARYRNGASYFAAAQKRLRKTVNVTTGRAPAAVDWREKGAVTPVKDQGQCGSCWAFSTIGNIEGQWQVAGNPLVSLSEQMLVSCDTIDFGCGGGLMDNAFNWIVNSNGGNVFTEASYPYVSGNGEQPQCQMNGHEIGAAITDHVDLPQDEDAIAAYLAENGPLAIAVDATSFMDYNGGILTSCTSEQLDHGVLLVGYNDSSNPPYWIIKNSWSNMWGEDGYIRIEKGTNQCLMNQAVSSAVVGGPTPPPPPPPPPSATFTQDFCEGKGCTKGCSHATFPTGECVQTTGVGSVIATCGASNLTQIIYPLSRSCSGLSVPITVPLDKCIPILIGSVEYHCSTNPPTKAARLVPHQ
T3 sequence (P07711 114-333): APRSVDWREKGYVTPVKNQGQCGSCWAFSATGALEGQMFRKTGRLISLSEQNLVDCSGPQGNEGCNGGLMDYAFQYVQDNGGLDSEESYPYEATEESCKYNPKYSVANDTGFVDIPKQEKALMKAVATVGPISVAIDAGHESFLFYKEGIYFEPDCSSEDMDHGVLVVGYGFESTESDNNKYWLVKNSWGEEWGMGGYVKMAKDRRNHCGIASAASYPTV
T1 sequence (Q8I6U4 244-484): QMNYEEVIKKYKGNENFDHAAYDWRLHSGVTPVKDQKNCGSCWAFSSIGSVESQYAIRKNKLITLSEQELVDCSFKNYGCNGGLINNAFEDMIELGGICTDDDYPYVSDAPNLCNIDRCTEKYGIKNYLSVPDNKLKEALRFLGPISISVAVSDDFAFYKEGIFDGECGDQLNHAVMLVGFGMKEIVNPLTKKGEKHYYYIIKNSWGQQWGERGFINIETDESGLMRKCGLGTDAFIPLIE

Row | Structure (SMILES) | FP2(K2nd(M-1s-1)) (Falcipain 2) | CB(K2nd(M-1s-1)) (Cathepsin B (human)) | IC50 (Cathepsin B (human)) | CR(K2nd(M-1s-1)) (cruzain (CR)) | IC50 (cruzain (CR)) | CL(K2nd(M-1s-1)) (Cathepsin L (human)) | IC50 (Cathepsin L (human)) | RD(K2nd(M-1s-1)) (Rhodesain) | IC50 (Rhodesain) | IC50 ([1]; mean of replicates, read-out: T.cruzi. IC50 mean) | IC50 ([1]; replicate 1, L-6 cells, 96 h, read-out: T.cruzi. IC50 repl1) | IC50 ([1]; replicate 2, L-6 cells, 96 h, read-out: T.cruzi. IC50 repl2) | IC50 ([2]; mean of replicates, read-out: L.don. ax am IC50 mean) | IC50 ([2]; replicate 1, axenic amastigotes, pH 5.4, 70 h, read-out: L.don. ax am IC50 repl1) | IC50 ([3]; mean of replicates, read-out: P.falc NF54 IC50 mean) | IC50 ([3]; replicate 1, erythrocytic stages, read-out: P.falc NF54 IC50 repl1) | IC50 ([3]; replicate 2, erythrocytic stages, read-out: P.falc NF54 IC50 repl2) | IC50 ([4]; 70 h, replicate 1, bloodstream forms, 70 h, read-out: T.b.rhod. IC50 repl1) | IC50 ([4]; 70 h, replicate 2, bloodstream forms, 70 h, read-out: T.b.rhod. IC50 repl2) | IC50 ([4]; mean of replicates, read-out: T.b.rhod. IC50 mean)
1 | CCOC(=O)/C=C/C(=O)[C@H](C)NC(=O)[C@H](Cc1ccccc1)NC(=O)OCc1ccccc1 | 28285 M⁻¹ s⁻¹ | 4738 M⁻¹ s⁻¹ | 140 nM | 139583 M⁻¹ s⁻¹ | 290 nM | 197273 M⁻¹ s⁻¹ | 90 nM | 6481 M⁻¹ s⁻¹ | 590 nM | – | – | – | – | – | – | – | – | – | – | –
2 | CCOC(=O)/C=C/C(=O)[C@H](CCc1ccccc1)NC(=O)[C@H](Cc1ccccc1)NC(=O)OCc1ccccc1 [FGA-44] | – | – | – | – | – | – | – | – | – | 10.9 µg/mL (≈ 20.1 µM) | 7.74 µg/mL (≈ 14.3 µM) | 14.1 µg/mL (≈ 26 µM) | 6.87 µg/mL (≈ 12.7 µM) | 6.87 µg/mL (≈ 12.7 µM) | 6.82 µg/mL (≈ 12.6 µM) | 7.19 µg/mL (≈ 13.3 µM) | 6.44 µg/mL (≈ 11.9 µM) | 0.446 µg/mL (≈ 0.822 µM) | 0.564 µg/mL (≈ 1.04 µM) | 0.505 µg/mL (≈ 0.931 µM)
3 | CCOC(=O)/C=C/C(=O)[C@H](CCc1ccccc1)NC(=O)[C@H](CC(C)C)NC(=O)OCc1ccccc1 [drawing 39] | 6035 M⁻¹ s⁻¹ | 42393 M⁻¹ s⁻¹ | 50 nM | 60784 M⁻¹ s⁻¹ | 77 nM | 29885 M⁻¹ s⁻¹ | 257 nM | 116147 M⁻¹ s⁻¹ | 145 nM | – | – | – | – | – | – | – | – | – | – | –
